The values that follow come from the OPERA property sets (Mansouri et al. 2018).

`CCS(=O)c1nc(C)c([N+](=O)[O-])c(C)c1C#N` (stereo not drawn) registered a logP of 2.44. With `CCS(=O)c1ccc([N+](=O)[O-])cn1` (stereo not drawn) the figure was 1.74; with `CCS(=O)c1ccc(C(=O)c2ccccc2)cc1[N+](=O)[O-]` (stereo not drawn), 3.82. The figure for `CCS(=O)c1ccc2ccccc2n1` (stereo not drawn) is 2.43; for `Cc1csc(S(C)=O)c1[N+](=O)[O-]` (stereo not drawn) it is 2.19. With `CS(=O)c1sccc1[N+](=O)[O-]` (stereo not drawn) the figure was 1.69. `CCC(=O)c1ccc(S(=O)CC)c([N+](=O)[O-])c1` (stereo not drawn) returned a logP of 2.8. The figure for `CCS(=O)c1sc(C(C)=O)c(C)c1C#N` (stereo not drawn) is 2.22; for `CC(=O)c1sc(S(C)=O)c(-c2ccc(Cl)cc2)c1N` (stereo not drawn) it is 3.18; for `CC(C)CS(=O)c1sccc1[N+](=O)[O-]` (stereo not drawn) it is 2.93. The figure for `CCS(=O)c1sc(C#N)c(OC)c1C#N` (stereo not drawn) is 2.35; for `CS(=O)c1sc(C#N)c(Cl)c1C#N` (stereo not drawn) it is 2.15; for `CCCS(=O)c1sccc1[N+](=O)[O-]` (stereo not drawn) it is 2.52. The figure for `CCOC(=O)c1cc(C#N)c(S(C)=O)s1` (stereo not drawn) is 2.27; for `CCCS(=O)c1sc(C#N)cc1C#N` (stereo not drawn) it is 2.18. Compound `CS(=O)c1nc(-c2ccccc2)cc(C(F)(F)F)n1` (stereo not drawn) registered a log partition coefficient (logP) of 3.01. The figure for `CCS(=O)c1ccc([N+](=O)[O-])cc1C#N` (stereo not drawn) is 2.15. The figure for `CCS(=O)c1ccc(C(C)=O)s1` (stereo not drawn) is 1.31; for `CC(=O)c1sc(S(C)=O)c(-c2ccccc2)c1C` (stereo not drawn) it is 3.26.

The compound `CS(=O)c1ccc([N+](=O)[O-])s1` (stereo not drawn) had a logP of 1.4. As for `CS(=O)c1sc(C#N)cc1C#N` (stereo not drawn), the logP was determined as 1.31. With `CCCCS(=O)c1sc(C#N)c(Cl)c1C#N` (stereo not drawn) the figure was 3.44. Take `CS(=O)c1cccs1` (stereo not drawn): the logP was found to be 0.91. With `CCCCS(=O)c1sc(C#N)cc1C#N` (stereo not drawn), the logP worked out at 2.64. Compound `Cc1c(C#N)sc(S(C)=O)c1-c1ccc(Cl)cc1` (stereo not drawn) had a lipophilicity (logP) of 3.8.

Regarding `CCS(=O)c1sc(C(C)=O)c(N)c1C#N` (stereo not drawn), the logP is 1.82. Compound `CS(=O)c1sccc1Br` (stereo not drawn) gave a logP of 1.71.

On to `CCS(=O)c1sc(C#N)cc1C#N` (stereo not drawn), for which the log partition coefficient (logP) is 1.78. With `CCS(=O)c1sccc1[N+](=O)[O-]` (stereo not drawn) the figure was 2.06; with `CC(=O)c1sc(S(C)=O)c(C#N)c1-c1ccc(Cl)cc1` (stereo not drawn), 3.31; with `CS(=O)c1scc(-c2ccccc2)c1[N+](=O)[O-]` (stereo not drawn), 3.2. With `CCS(=O)c1ccc(Cl)cc1S(C)(=O)=O` (stereo not drawn) the figure was 2.31; with `CS(=O)c1ccsc1` (stereo not drawn), 0.91.

Consider `CCCS(=O)c1sc(C#N)c(Cl)c1C#N` (stereo not drawn), for which the logP turned out to be 2.95. In turn, `CCS(=O)c1cnc2ccccc2n1` (stereo not drawn) displayed a lipophilicity (logP) of 2.29. Regarding `CC(=O)c1sc(S(C)=O)c(-c2ccc(Cl)cc2)c1C` (stereo not drawn), the logP worked out at 3.82. With `CCS(=O)c1nc(C)cc(C)c1C#N` (stereo not drawn) the figure was 1.77; with `Cc1c(C#N)sc(S(C)=O)c1-c1ccccc1` (stereo not drawn), 3.36. As to `CS(=O)c1sccc1C#N` (stereo not drawn), the logP worked out at 0.96.

`CCS(=O)c1sc(Cl)cc1C#N` (stereo not drawn) gave a log partition coefficient (logP) of 2.31.

As to `CCS(=O)c1c(Cl)cncc1Cl` (stereo not drawn), the logP came out at 2.1. With `CCS(=O)c1sc(C(C)=O)c(Cl)c1C#N` (stereo not drawn) the figure was 2.64; with `Cc1sc(S(C)=O)c([N+](=O)[O-])c1C` (stereo not drawn), 2.65. The figure for `COc1c(C#N)sc(S(C)=O)c1C#N` (stereo not drawn) is 2.02; for `CCCCCC(=O)c1ccc(S(=O)CC)c([N+](=O)[O-])c1` (stereo not drawn) it is 4.36. The compound `CCS(=O)c1sc(C(C)=O)c(C)c1[N+](=O)[O-]` (stereo not drawn) yielded a logP of 2.81. Take `CCCCCC1(c2ccc(S(=O)CC)c([N+](=O)[O-])c2)OCCO1` (stereo not drawn): the log partition coefficient (logP) stood at 5.11. Consider `CCS(=O)c1sc(C#N)c(C)c1C(C)=O` (stereo not drawn), for which the logP was determined as 2.22.

By logP is commonly meant a log measure of how a compound divides between an organic and an aqueous phase. A lower logP goes with a more hydrophilic compound.
